{"source": "patent US20200261388A1", "about": "“USE AND METHOD OF L-ASPARTIC ACID beta-HYDROXAMATE IN PREPARING DRUGS FOR INHIBITING CHOROIDAL NEOVASCULARIZATION” (WENZHOU MEDICAL UNIVERSITY, priority 2019, published 2020)", "key": {"macrophages J774A.1": {"test_system": "macrophages J774A.1", "experiment": "Migration of macrophages J774A.1 co-cultured with TNFα-treated RPE", "format": "cell-based", "settings": "L-ABH 0.125 mM pre-treatment of RPE 1.5 h, then TNFα 12 h; co-culture 12 h", "experimental": "(§1) Using animal models of exAMD, in C57/B6 mice, fundus was irradiated with Krypton red laser (interval at 0.05 s, duration of 0.07 s, and power at 240 mW) to make CNV mice models. A serine racemase competitive inhibitor, L-aspartic acid β-hydroxamate (L-ABH), was injected intravenously at a dosage of 6 mg/kg at the day before laser, and at a dosage of 3 mg/kg at the third day after laser. At the seventh day after laser injury, stretched preparation was performed with choroid/retinal pigment epithelial cells (RPEs), which were stained with metaagglutinin GS-IB4 coupled with Alexa Fluor 594, and the volume of CNV was analyzed. And primary RPEs were utilized in vitro to study the inhibition of L-ABH on the production of VEGF and MCP-1 by RPEs which was induced with TNFα. Macrophages were co-cultured with RPEs to study L-ABH about pre-treating RPEs and inhibiting the migration of macrophages.\nThe results of L-ABH inhibiting the migration of macrophages under the induction of RPE treated with TNFα are shown in FIGS. 5A-5D, in which RPE was co-cultured with macrophages J774A.1 for 12 h. […] For each culture dish, nine visual fields were randomly selected under the light microscope to be counted, with the statistical analysis seen in FIG. 5D. **p<0.01, compared with the control group, # p<0.05, compared with TNFα treatment group."}, "[1]": {"test_system": "laser-induced choroidal neovascularization", "experiment": "Laser-induced choroidal neovascularization (CNV) mouse model, intravenous L-ABH", "format": "in vivo, C57/B6 mice", "settings": "i.v. 6 mg/kg the day before laser and 3 mg/kg third day after laser; analysed day 7 after laser; p=0.001", "experimental": "as §1\nThe results of inhibiting the laser-induced choroidal neovascularization by intravenously injecting L-ABH are shown in FIGS. 1A-1E, wherein FIG. 1A is CNV produced by laser in 2-month-old wild-type mice. Injection of saline was used as the control group (Con, B); at the day before laser, L-ABH was injected intravenously (2 mg/kg), and 1 mg/kg (C) was injected 3 days after laser; or at the day before laser, L-ABH was injected intravenously (6 mg/kg), and 3 mg/kg (D) was injected 3 days after laser. […]"}, "visual functions": {"test_system": "visual functions", "parameters": "species or system C57BL/6j male mice", "settings": "mouse, in vivo", "experimental": "The effect of intravenous injection of L-ABH on visual functions are shown in FIGS. 3A-3C, in which C57BL/6j male mice were intravenously injected 6 mg/kg of L-ABH at an age of two months, one day after the injection, visual behaviors were analyzed."}, "primary RPEs": {"test_system": "primary RPEs", "experiment": "L-serine and D-serine in supernatants of primary RPE by HPLC", "format": "cell-based", "settings": "L-ABH 0.0625-0.25 mM pre-treatment 1.5 h, then TNFα 500 unit/ml 12 h; supernatant", "experimental": "Primary RPE was cultured in DMEM/F12 plus 20% FBS to a density of 70%, at which it was exchanged for DMEM/F12 plus 1% FBS, L-ABH (0.0625-0.25 mM), or after the control pre-treatment for 1.5 hours, it was exchanged for TNFα (500 unit/ml) to treat for 12 h, the supernatants were collected, and L-serine and D-serine in the supernatants were detected by high performance liquid chromatography. There were six samples in each group. The contents of L-serine and D-serine are shown with box charts in FIG. 4A, with **p<0.01, *p<0.05 showing that there was significant difference of D-serine between the treatment group and the control group. The ratio of L/D-serine was shown in FIG. 4B, with **p<0.01, *p<0.05 showing that there was significant difference between the control groups. In FIG. 4C-FIG. 4E, primary RPEs were co-cultured with macrophages J774A.1, primary RPEs were pretreated with L-ABH (0.125 mM) for 1.5 h, then treated with TNFα (500 unit/ml) for 12 h, with J774A.1 being cultured in the upper layer at the same time for 12 h, after which the supernatants cultured with RPEs were collected, and an enzyme-linked immunosorbent assay was used to detect the productions of MCP-1 (C), VEGF (D), and NO (E). (There were 7 samples for each group). In FIG. 4C, ***p<0.001, compared with the control group, **p<0.01, compared with TNFα treatment group. […]"}, "[2]": {"test_system": "retinal functions (B-wave of rod and cone cells)", "experiment": "Electroretinographic analysis of retinal function after intravenous L-ABH", "format": "in vivo, C57BL/6J male mice", "settings": "6 mg/kg i.v., one day after injection, vs saline injection group", "experimental": "The effect of intravenous injection of L-ABH on retinal functions is shown in FIGS. 2A-2D, in which C57BL/6J male mice were intravenously injected 6 mg/kg of L-ABH at an age of two months, one day after the injection, an electrographic analysis was performed on the retina. The amplitudes of B-wave in dark and bright views are shown in FIG. 2A, FIG. 2C, and FIG. 2B respectively, and the average values of which are analyzed by histograms in FIG. 2D."}, "[3]": {"test_system": "primary RPEs induced with TNFα", "experiment": "Production of VEGF and MCP-1 by TNFα-induced primary RPE (ELISA, co-culture with J774A.1)", "format": "cell-based", "settings": "L-ABH 0.125 mM pre-treatment 1.5 h, then TNFα 500 unit/ml 12 h", "experimental": "as §1\nPrimary RPE was cultured in DMEM/F12 plus 20% FBS to a density of 70%, at which it was exchanged for DMEM/F12 plus 1% FBS, L-ABH (0.0625-0.25 mM), or after the control pre-treatment for 1.5 hours, it was exchanged for TNFα (500 unit/ml) to treat for 12 h, the supernatants were collected, and L-serine and D-serine in the supernatants were detected by high performance liquid chromatography. There were six samples in each group. […]"}}}
{"smiles": "N[C@@H](CC(=O)NO)C(=O)O", "note": "[L-ABH, L-aspartic acid β-hydroxamate]", "values": [{"measurement": "macrophage migration mediated with RPE induced with TNFα", "setting": "macrophages J774A.1", "value": "significantly inhibited macrophage migration"}, {"measurement": "volume of CNV relative to saline control group", "setting": "[1]", "value": 55, "unit": "%"}, {"measurement": "retention time of mice in the black box", "setting": "visual functions", "value": "no difference"}, {"measurement": "production of D-serine in primary RPEs", "setting": "primary RPEs", "value": "decreased the production of D-serine"}, {"measurement": "ratio of L-serine/D-serine", "setting": "primary RPEs", "value": "increased the ratio of L-serine/D-serine"}, {"measurement": "amplitude of B-wave from cone cells in a bright view", "setting": "[2]", "value": "no differences"}, {"measurement": "amplitude of B-wave from rod cells in a dark view", "setting": "[2]", "value": "no differences"}, {"measurement": "production of MCP-1 by RPE induced with TNFα", "setting": "[3]", "value": "significantly decreasing the production"}, {"measurement": "production of VEGF by RPE induced with TNFα", "setting": "[3]", "value": "significantly decreasing the production"}]}
